These are literature values, as cited in US5320960A, “Method of preparing solution enriched in xylanase using low molecular weight alcohol, organic salt and inorganic salt” (Genencor International, Inc., priority 1992, dated 1994).

This data set addresses β-Glucosidase (BG) components of fungal cellulase. To be noted: competitive inhibition; read-out: Ki (glucose).

A word on the Ki: it is a dissociation constant, usually derived from enzyme kinetics or from competition with a known ligand. For `OC[C@H]1OC(O)[C@H](O)[C@@H](O)[C@@H]1O` (stereo partly shown) [glucose], the Ki was ~1000 µM.
